Data on 1 molecule can be found in patent US20160089371A1, “Combination of Kinase Inhibitors and Uses Thereof” (INTELLIKINE, LLC, priority 2013, published 2016).

Data set [1] has as its system tumor cells harboring PI3K α mutations. Description: Proliferation of tumor cells with or without PI3K α mutations. The format is cell-based. Conditions: FIG. 13.
Data set [2] has as its system PI3 kinase signaling pathway in MDA-MB-361, HCC-1419 and NCI-H1048 cells. Description: Cellular signaling immunoblot in human tumor cell lines. In kind it is cell-based. Conditions: single agents; Compound B 5-100 nM, Compound A 1 and 3 μM; 2 or 24 hours. As to the method: Compound A was synthesized at Intellikine and was supplied as a stock of 10 mM in 100% DMSO and diluted in the respective cell line's growth media.
Prior to treatment, cells were plated at 2×10^5 cells/well in 12-well plates in normal growth media and grown to 80% confluence. Cells were treated for 2 or 24 hours in a CO2 incubator set to 37° C. with normal growth media containing inhibitor diluted in DMSO.
Media was aspirated, cells were washed with 1×PBS, Ice cold 1× Cell Lysis Buffer was prepared from 10× stock and 100 μM 4-(2-Aminoethyl) benzenesulfonyl fluoride hydrochloride (AEBSF) andlmM sodium orthovanadate […] was added. Cells were lysed by adding 1× Cell Lysis Buffer (100 μL per well of 12-well plate of cells). Cells incubated on ice for 20 to 30 minutes to allow complete lysis, and lysates were transferred to microcentrifuge tubes, sonicated for 10 seconds, and subjected to microcentrifugation at 14,000×g for 10 minutes at 4° C. Cleared supernatants were transferred to fresh tubes, and stored at −20° C. for Western blot analysis. […] Molecular weight markers were loaded, the gel electrophoresed at 200V for 40 minutes.
The gels were electrotransferred to nitrocellulose membranes, and incubated in blocking buffer (Tris buffered saline plus 0.5% Tween-20 (TBS/T)+5% bovine serum albumin (BSA)) for 1 hour at room temperature. […]
A general note: Immunoblotting shows a protein as a band on a membrane.

Data set [3] in a line: Steady-state blood glucose (Example 42). The format is in vivo, Mus musculus. The conditions noted are these: Compound B 0.3 mg/kg, Compound A 60 mg/kg, alone or combined; returned to normal within an hour of dosing. As to the method: Blood glucose levels were measured via a tail knick using a FreeStyle® handheld blood glucose monitor (Abbott Laboratories) at 5, 15, 30, 60, and 90 minutes after the last dose (Day 29).

Regarding `Nc1nc2cc(-c3ccc4ncc(C(=O)N5CCOCC5)n4c3)ccc2o1` [Compound A], the “inhibition of proliferation of tumor cells” value in data set [1] is given as “preferentially inhibits proliferation”. In addition, the “phosphorylation of downstream targets AKT, S6 and 4E-BP1 (Western blot, FIG. 15)” value in data set [2] is “potently inhibited”. The “steady-state blood glucose level after the last dose (Day 29)” value in data set [3] is “slight increase”.
